In patent publication US20240342292A1, “Compounds for the Degradation of EGFR Kinase” (BeiGene Switzerland GmbH, priority 2021, published 2024):

What was measured:
[1] = molecular target: T1, L858R/T790M/C797S EGFR (Homo sapiens, UniProt P00533, C797S/L858R/T790M); assay: EGFR degradation HTRF assay in H1975-clone #25 (LTC) cells; format: cell-based; conditions: 16h treatment; for DC50: H1975 # 25-LTC (L858R/T790M/C797S), HTRF; for Dmax: NCI-H1975, H1975 # 25-LTC (L858R/T790M/C797S), maximum percentage of degradation
T1 construct: expressed in transfected cells; host or cells: H1975 clone #25 (lentiviral over-expression, endogenous EGFR knocked out by sgRNA)
T1 sequence (P00533 25-1210 T790M/C797S/L858R): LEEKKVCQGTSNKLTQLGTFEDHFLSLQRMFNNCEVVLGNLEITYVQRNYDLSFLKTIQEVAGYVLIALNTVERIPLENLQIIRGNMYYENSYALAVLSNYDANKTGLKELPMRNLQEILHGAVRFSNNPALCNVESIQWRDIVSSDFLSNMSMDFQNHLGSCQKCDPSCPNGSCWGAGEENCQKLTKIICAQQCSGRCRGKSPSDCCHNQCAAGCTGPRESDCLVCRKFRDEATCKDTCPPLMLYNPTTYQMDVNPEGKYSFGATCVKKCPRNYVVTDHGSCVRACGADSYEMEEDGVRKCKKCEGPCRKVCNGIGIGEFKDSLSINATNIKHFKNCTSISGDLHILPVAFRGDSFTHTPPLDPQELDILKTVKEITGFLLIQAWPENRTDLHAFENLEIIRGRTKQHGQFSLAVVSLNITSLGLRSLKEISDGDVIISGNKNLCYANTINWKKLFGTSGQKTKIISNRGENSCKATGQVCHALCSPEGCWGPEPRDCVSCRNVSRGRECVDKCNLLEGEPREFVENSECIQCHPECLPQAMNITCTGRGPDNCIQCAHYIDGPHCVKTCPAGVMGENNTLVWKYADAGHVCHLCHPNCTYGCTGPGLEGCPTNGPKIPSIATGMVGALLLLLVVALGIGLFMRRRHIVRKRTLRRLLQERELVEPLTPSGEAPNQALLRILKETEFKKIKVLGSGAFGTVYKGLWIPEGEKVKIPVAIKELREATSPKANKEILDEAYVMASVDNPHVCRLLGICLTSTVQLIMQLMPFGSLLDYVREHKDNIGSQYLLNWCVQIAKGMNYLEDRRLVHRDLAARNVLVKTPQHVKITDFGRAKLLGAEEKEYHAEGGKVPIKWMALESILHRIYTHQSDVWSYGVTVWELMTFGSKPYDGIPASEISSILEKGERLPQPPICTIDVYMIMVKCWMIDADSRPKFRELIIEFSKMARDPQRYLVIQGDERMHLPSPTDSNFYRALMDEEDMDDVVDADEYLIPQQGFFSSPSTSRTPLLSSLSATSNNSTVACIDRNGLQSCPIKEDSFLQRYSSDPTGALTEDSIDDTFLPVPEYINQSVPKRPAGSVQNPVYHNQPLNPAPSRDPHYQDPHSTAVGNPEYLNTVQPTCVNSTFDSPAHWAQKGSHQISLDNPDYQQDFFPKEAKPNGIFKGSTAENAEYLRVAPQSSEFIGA
Outline: (§1)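 Cells carrying only lentiviral mutant EGFR, since endogenous alleles were removed by CRISPR, received compounds on day 2 for 16 h. Final concentrations ran from 10 uM down in 5-fold steps over 8 doses. After lysis, EGFR levels were quantified by HTRF and DC50 derived by curve fitting.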

[2] = system: Del19/T790M/C797S EGFR; assay: EGFR degradation HTRF assay in H1975-clone #28 (DTC) cells; format: cell-based; conditions: H1975 # 28 DTC (Del19/T790M/C797S), 16h treatment; for DC50: HTRF; for Dmax (%): maximum percentage of degradation
Outline: as §1

SMILES | DC50 [1] | Dmax [1] | DC50 [2] | Dmax (%) [2]
Cc1cc2cc(n1)-c1cnn(C)c1OCCC[C@@H](C)CN1/C(=N/C2=O)Nc2ccc(C3CCN(CC4CCN(c5cc(F)c([C@H]6CCC(=O)NC6=O)c(F)c5)CC4)CC3)cc21 [Example 323, (R)-3-(2,6-difluoro-4-(4-((4-((R,E)-1^1,2^6,7-trimethyl-3-oxo-5^2,5^3-dihydro-1^1H,5^1H-11-oxa-4-aza-5(2,1)-benzo[d]imidazola-2(2,4)-pyridina-1(4,5)-pyrazolacycloundecaphane-5^6-yl)piperidin-1-yl)methyl)piperidin-1-yl)phenyl)piperidine-2,6-dione] | 1.03 nM | 63.9% | 1.03 nM | 49.97%
Cc1cc2cc(n1)-c1cnn(C)c1OCCC[C@@H](C)CN1/C(=N/C2=O)Nc2ccc(N3CCN(C4CCN(c5cc(F)c([C@H]6CCC(=O)NC6=O)c(F)c5)CC4)CC3)cc21 [Example 324, (R)-3-(2,6-difluoro-4-(4-(4-((R,E)-1^1,26,7-trimethyl-3-oxo-5^2,5^3-dihydro-1^1H,5^1H-11-oxa-4-aza-5(2, 1)-benzo[d]imidazola-2(2,4)-pyridina-1(4,5)-pyrazolacycloundecaphane-5^6-yl)piperazin-1-yl)piperidin-1-yl)phenyl)piperidine-2,6-dione] | 1.02 nM | 91.1% | 0.859 nM | 78.7%
Cc1cc2cc(n1)-c1cnn(C)c1OCCC[C@@H](C)CN1/C(=N/C2=O)Nc2ccc(N3CCN(C(=O)[C@@H]4CN(c5cc(F)c([C@H]6CCC(=O)NC6=O)c(F)c5)CC4(C)C)CC3)cc21 [Example 326, (R)-3-(4-((S)-3,3-dimethyl-4-(4-((R,E)-1^1,2^6,7-trimethyl-3-oxo-5^2,5′-dihydro-1^1H,5^1H-11-oxa-4-aza-5(2,1)-benzo[d]imidazola-2(2,4)-pyridina-1(4,5)-pyrazolacycloundecaphane-5^6-yl)piperazine-1-carbonyl)pyrrolidin-1-yl)-2,6-difluorophenyl)piperidine-2,6-dione] | 1.88 nM | 88.9% | 1.71 nM | 81.61%
Cc1cc2cc(n1)-c1cnn(C)c1OCCC[C@@H](C)CN1/C(=N/C2=O)Nc2ccc(C3CCN(C(=O)[C@H]4CN(c5cc(F)c([C@H]6CCC(=O)NC6=O)c(F)c5)CC4(C)C)CC3)cc21 [Example 327, (R)-3-(4-((R)-3,3-dimethyl-4-(4-((R,E)-1^1,2^6,7-trimethyl-3-oxo-5^2,53-dihydro-1^1H,5^1H-11-oxa-4-aza-5(2,1)-benzo[d]imidazola-2(2,4)-pyridina-1(4,5)-pyrazolacycloundecaphane-5^6-yl)piperidine-1-carbonyl)pyrrolidin-1-yl)-2,6-difluorophenyl)piperidine-2,6-dione] | 3.17 nM | 83.7% | 1.09 nM | 74.51%
Cc1cc2cc(n1)-c1cnn(C)c1OCCC[C@@H](C)CN1/C(=N/C2=O)Nc2cc(F)c(C3CCN(C(=O)[C@@H]4CCN(c5cc(F)c(C6CCC(=O)NC6=O)c(F)c5)C4)CC3)cc21 (stereo partly drawn) [Example 329, (R)-3-(2,6-difluoro-4-((R)-3-(4-((R,E)-5^5-fluoro-1^1,2^6,7-trimethyl-3-oxo-5^2,5^3-dihydro-1^1H,5^1H-11-oxa-4-aza-5(2,1)-benzo[d]imidazola-2(2,4)-pyridina-1(4,5)-pyrazolacycloundecaphane-5^6-yl)piperidine-1-carbonyl)pyrrolidin-1-yl)phenyl)piperidine-2,6-dione] | 2.97 nM | 78.7% | 2.19 nM | 68.61%
Cc1cc2cc(n1)-c1cnn(C)c1OCCC[C@@H](C)CN1/C(=N/C2=O)Nc2ccc(C3CCN(CCc4cc(F)c([C@H]5CCC(=O)NC5=O)c(F)c4)CC3)cc21 [Example 330, (R)-3-(2,6-difluoro-4-(2-(4-((R,E)-1^1,2^6,7-trimethyl-3-oxo-5^2,5^3-dihydro-1^1H,5^1H-11-oxa-4-aza-5(2,1)-benzo[d]imidazola-2(2,4)-pyridina-1(4,5)-pyrazolacycloundecaphane-5^6-yl)piperidin-1-yl)ethyl)phenyl)piperidine-2,6-dione] | 0.972 nM | 87.1% | 0.633 nM | 66.1%
Cc1cc2cc(n1)-c1cnn(C)c1OCCC[C@@H](C)CN1/C(=N/C2=O)Nc2ccc(C3CCN(C4CCN(c5cc(F)c([C@H]6CCC(=O)NC6=O)c(F)c5)CC4)CC3)cc21 [Example 332, (R)-3-(2,6-difluoro-4-(4-((R,E)-1^1,2^6,7-trimethyl-3-oxo-5^2,5^3-dihydro-1^1H,5^1H-11-oxa-4-aza-5(2,1)-benzo[d]imidazola-2(2,4)-pyridina-1(4,5)-pyrazolacycloundecaphane-5^6-yl)-[1,4′-bipiperidin]-1′-yl)phenyl)piperidine-2,6-dione] | 0.995 nM | 91.2% | 1.31 nM | 86.39%
Cc1cc2cc(n1)-c1cnn(C)c1OCCC[C@@H](C)CN1/C(=N/C2=O)Nc2ccc(C(=O)N(C)CCCCc3cc(F)c([C@H]4CCC(=O)NC4=O)c(F)c3)cc21 [Example 339, (R,E)-N-(4-(4-((R)-2,6-dioxopiperidin-3-yl)-3,5-difluorophenyl)butyl)-N,1^1,2^6,7-tetramethyl-3-oxo-5^2,5^3-dihydro-1^1H,5^1H-11-oxa-4-aza-5(2,1)-benzo[d]imidazola-2(2,4)-pyridina-1(4,5)-pyrazolacycloundecaphane-5^6-carboxamide] | 0.865 nM | 80.3% | 0.671 nM | 70.76%

These reach a lower DC50 [1]. Values come first.

DC50 [1] | Dmax [1] | DC50 [2] | SMILES | Dmax (%) [2]
0.71 nM | 97.1% | 1.33 nM | Cc1cc2cc(n1)-c1cnn(C)c1OCCC[C@@H](C)CN1/C(=N/C2=O)Nc2ccc(C3CCN(CC4CN(c5cc(F)c([C@H]6CCC(=O)NC6=O)c(F)c5)C4)CC3)cc21 [Example 331, (R)-3-(2,6-difluoro-4-(3-((4-((R,E)-1^1,2^6,7-trimethyl-3-oxo-5^2,53-dihydro-1^1H,5^1H-11-oxa-4-aza-5(2,1)-benzo[d]imidazola-2(2,4)-pyridina-1(4,5)-pyrazolacycloundecaphane-5-yl)piperidin-1-yl)methyl)azetidin-1-yl)phenyl)piperidine-2,6-dione] | 73.69%
0.687 nM | 86.1% | 0.684 nM | Cc1cc2cc(n1)-c1cnn(C)c1OCCC[C@@H](C)CN1/C(=N/C2=O)Nc2ccc(N3CCC(C(=O)N4CCN(c5cc(F)c([C@H]6CCC(=O)NC6=O)c(F)c5)CC4)CC3)cc21 [Example 333, (R)-3-(2,6-difluoro-4-(4-(1-((R,E)-1^1,2^6,7-trimethyl-3-oxo-5^2,5^3-dihydro-1^1H,5^1H-11-oxa-4-aza-5(2,1)-benzo[d]imidazola-2(2,4)-pyridina-1(4,5)-pyrazolacycloundecaphane-5^6-yl)piperidine-4-carbonyl)piperazin-1-yl)phenyl)piperidine-2,6-dione] | 75.17%
0.657 nM | 79.4% | 0.789 nM | Cc1cc2cc(n1)-c1cnn(C)c1OCCC[C@@H](C)CN1/C(=N/C2=O)Nc2ccc(N3CCC(C(=O)N(C)CCc4cc(F)c([C@H]5CCC(=O)NC5=O)c(F)c4)CC3)cc21 [Example 335, N-(4-((R)-2,6-dioxopiperidin-3-yl)-3,5-difluorophenethyl)-N-methyl-1-((R,E)-1^1,2^6,7-trimethyl-3-oxo-5^2,5^3-dihydro-1^1H,5^1H-11-oxa-4-aza-5(2,1)-benzo[d]imidazola-2(2,4)-pyridina-1(4,5)-pyrazolacycloundecaphane-5^6-yl)piperidine-4-carboxamide] | 60.16%
0.54 nM | 86.8% | 0.621 nM | Cc1cc2cc(n1)-c1cnn(C)c1OCCC[C@@H](C)CN1/C(=N/C2=O)Nc2ccc(C(=O)N3CCN(CCCc4cc(F)c([C@H]5CCC(=O)NC5=O)c(F)c4)CC3)cc21 [Example 341, (R)-3-(2,6-difluoro-4-(3-(4-((R,E)-1^1,2^6,7-trimethyl-3-oxo-5^2,5^3-dihydro-1^1H,5^1H-11-oxa-4-aza-5(2,1)-benzo[d]imidazola-2(2,4)-pyridina-1(4,5)-pyrazolacycloundecaphane-5^6-carbonyl)piperazin-1-yl)propyl)phenyl)piperidine-2,6-dione] | 79.84%
0.535 nM | 92% | 0.608 nM | Cc1cc2cc(n1)-c1cnn(C)c1OCCC[C@@H](C)CN1/C(=N/C2=O)Nc2ccc(C(=O)N[C@H]3CCN(CCc4cc(F)c([C@H]5CCC(=O)NC5=O)c(F)c4)CC3(F)F)cc21 [Example 337, (R,E)-N—((S)-1-(4-((R)-2,6-dioxopiperidin-3-yl)-3,5-difluorophenethyl)-3,3-difluoropiperidin-4-yl)-1^12^6,7-trimethyl-3-oxo-5^2,5^3-dihydro-1^1H,5^1H-11-oxa-4-aza-5(2,1)-benzo[d]imidazola-2(2,4)-pyridina-1(4,5)-pyrazolacycloundecaphane-5^6-carboxamide] | 79.69%
0.386 nM | 88.4% | 0.304 nM | Cc1cc2cc(n1)-c1cnn(C)c1OCCC[C@@H](C)CN1/C(=N/C2=O)Nc2cc(C)c(C(=O)N(C)C3CCN(CCc4cc(F)c([C@H]5CCC(=O)NC5=O)c(F)c4)CC3)cc21 [Example 336, (R,E)-N-(1-(4-((R)-2,6-dioxopiperidin-3-yl)-3,5-difluorophenethyl)piperidin-4-yl)-N,1^1,2^6,5^5,7-penta methyl-3-oxo-5^2,5^3-dihydro-1^1H,5^1H-11-oxa-4-aza-5(2,1)-benzo[d]imidazola-2(2,4)-pyridina-1(4,5)-pyrazolacycloundecaphane-5^6-carboxamide] | 72.28%
